Results: patent US20080167330A1, “Carbamoylsulphoximides as protein kinase inhibitors” (priority 2006, published 2008)

What was measured:
Format in all cases: biochemical
human Aurora-C = biological target: T1, human Aurora-C (Homo sapiens, UniProt Q9UQB9); assay: Aurora-C kinase assay (HTRF); conditions: 10 μM ATP
T1 construct: GST; made in house; host or cells: transiently transfected HEK293 cells
T1 sequence (Q9UQB9 1-309): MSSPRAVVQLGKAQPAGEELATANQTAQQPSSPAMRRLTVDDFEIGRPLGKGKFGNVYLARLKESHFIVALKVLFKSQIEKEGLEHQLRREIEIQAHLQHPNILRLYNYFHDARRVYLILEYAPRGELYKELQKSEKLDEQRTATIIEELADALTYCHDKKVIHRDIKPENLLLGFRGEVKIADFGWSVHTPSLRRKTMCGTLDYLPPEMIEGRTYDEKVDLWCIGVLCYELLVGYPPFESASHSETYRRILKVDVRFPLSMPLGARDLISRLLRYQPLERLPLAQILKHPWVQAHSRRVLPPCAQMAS
Protocol: The Aurora-C inhibitory activity of the substances of this invention was measured in the Aurora-C-HTRF assay (HTRF=Homogeneous Time Resolved Fluorescence) described in the following paragraphs.
Recombinant fusion protein of GST and human Aurora-C was expressed in transiently transfected HEK293 cells and purified by affinity chromatography on glutathione-Sepharose. The substrate used for the kinase reaction was the biotinylated peptide biotin-Ttds-FMRLRRLSTKYRT (C terminus in amide form) which can be purchased for example from JERINI Peptide Technologies (Berlin). Aurora-C was incubated in the presence of various concentrations of test substances in 5 μL of assay buffer [25 mM Hepes/NaOH pH 7.4, 0.5 mM MnCl2, 2.0 mM dithiothreitol, 0.1 mM sodium orthovanadate, 10 μM adenosine triphosphate (ATP), […] substrate, 0.01% (v/v) TritonX-100 (Sigma), 0.05% (w/v) bovine serum albumin (BSA), 1% (v/v) dimethyl sulphoxide] at 22° C. for 60 min. The concentration of Aurora-C was adapted to the particular activity of the enzyme and adjusted so that the assay operated in the linear range. Typical concentrations were in the region of 0.3 nM. The reaction was stopped by adding 5 μl of a solution of HTRF detection reagents (0.2 μM streptavidin-XLent and 1.4 nM anti-phospho-(Ser/Thr)-Akt substrate-Eu-cryptate (Cis biointernational, France, product No. 61P02KAE), a Europium-cryptate-labelled phospho-(Ser/Thr)-Akt substrate antibody [product #9611B, Cell Signaling Technology, Danvers, Mass., USA]) in aqueous EDTA solution (40 mM EDTA, 400 mM KF, 0.05% (w/v) bovine serum albumin (BSA) in 25 mM HEPES/NaOH pH 7.0).
The resulting mixture was incubated at 22° C. for 1 h in order to allow formation of a complex of the biotinylated phosphorylated substrate and the detection reagents. The amount of phosphorylated substrate was then estimated by measuring the resonance energy transfer from the anti-phospho-(Ser/Thr)-Akt substrate-Eu cryptate to the streptavidin-XLent. For this purpose, the fluorescence emissions at 620 nm and 665 nm after excitation at 350 nm were measured in an HTRF measuring instrument, e.g. a Rubystar (BMG Labtechnologies, Offenburg, Germany) or a Viewlux (Perkin-Elmer). The ratio of the emissions at 665 nm and at 622 nm was taken as a measure of the amount of phosphorylated substrate. The data were normalized (enzymic reaction without inhibitor=0% inhibition, all other assay components but no enzyme=100% inhibition) and IC50 values were calculated with a 4-parameter fit using an inhouse software.

CDK1/CycB = biological target: T2, CDK1/CycB (Homo sapiens, UniProt P06493); assay: CDK1/CycB kinase assay; conditions: 0.5 μM ATP
T2 construct: GST; purchased ProQinase GmbH, Freiburg; host or cells: baculovirus-infected insect cells (Sf9)
T2 sequence (P06493 whole entry): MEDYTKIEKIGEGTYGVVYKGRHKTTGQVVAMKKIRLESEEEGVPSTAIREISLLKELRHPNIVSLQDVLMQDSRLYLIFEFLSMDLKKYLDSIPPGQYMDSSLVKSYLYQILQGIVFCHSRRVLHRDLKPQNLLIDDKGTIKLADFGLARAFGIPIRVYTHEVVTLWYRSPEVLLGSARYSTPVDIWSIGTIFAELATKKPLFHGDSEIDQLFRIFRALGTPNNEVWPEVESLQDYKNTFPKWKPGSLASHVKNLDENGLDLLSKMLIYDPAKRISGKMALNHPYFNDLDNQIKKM
T2 sequence (P14635 whole entry partner): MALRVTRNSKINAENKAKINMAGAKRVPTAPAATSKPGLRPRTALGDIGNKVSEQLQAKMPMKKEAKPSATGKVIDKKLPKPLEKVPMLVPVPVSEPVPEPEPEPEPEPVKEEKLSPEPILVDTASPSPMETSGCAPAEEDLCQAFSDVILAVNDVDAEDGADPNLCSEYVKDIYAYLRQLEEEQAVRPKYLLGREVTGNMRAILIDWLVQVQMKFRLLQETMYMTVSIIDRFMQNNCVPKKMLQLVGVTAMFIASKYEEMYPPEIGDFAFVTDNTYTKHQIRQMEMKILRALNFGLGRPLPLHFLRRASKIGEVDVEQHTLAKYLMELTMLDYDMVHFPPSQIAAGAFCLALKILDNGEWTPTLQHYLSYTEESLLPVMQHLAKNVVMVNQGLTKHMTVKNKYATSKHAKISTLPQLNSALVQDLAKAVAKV
Protocol: Recombinant CDK1- and CycB-GST fusion proteins, purified from baculovirus-infected insect cells (Sf9), were purchased from ProQinase GmbH, Freiburg. The histone IIIS used as kinase substrate can be purchased from Sigma.
CDK1/CycB (5 ng/μL) was incubated in the presence of various concentrations of test substances (0 μM, and within the range 0.01-100 μM) in 40 μL of assay buffer [50 mM Tris/HCl pH 8.0, 10 mM MgCl2, 0.1 mM Na ortho-vanadate, 1.0 mM dithiothreitol, 0.025% PEG 20000, 0.5 μM ATP, 10 μM histone IIIS, 0.2 μCi/measurement point ^33P-gamma ATP, 0.05% NP40, 1.25% dimethyl sulphoxide] at 22° C. for 10 min. The reaction was stopped by adding EDTA solution (250 mM, pH 8.0, 15 μl/measurement point). 15 μl of each reaction mixture were loaded onto P30 filter strips (from Wallac), and non-incorporated ^33P-ATP was removed by washing the filter strips three times in 0.5% strength phosphoric acid for 10 min each time. After the filter strips had been dried at 70° C. for 1 hour, the filter strips were covered with scintillator strips (MeltiLex™ A, from Wallac) and baked at 90° C. for 1 hour. The amount of incorporated ^33P (substrate phosphorylation) was determined by scintillation measurement in a gamma radiation counter (Wallac).
(§1) The measured data were normalized to 0% inhibition (enzyme reaction without inhibitor) and 100% inhibition (all assay components except enzyme). The IC50 values were determined by means of a 4-parameter fit using the company's own software.

CDK2/CycE = biological target: T3, CDK2/CycE (Homo sapiens, UniProt P24941); assay: CDK2/CycE kinase assay; conditions: 0.5 μM ATP
T3 construct: GST; purchased ProQinase GmbH, Freiburg; host or cells: baculovirus-infected insect cells (Sf9)
Protocol: Recombinant CDK2- and CycE-GST fusion proteins, purified from baculovirus-infected insect cells (Sf9), were purchased from ProQinase GmbH, Freiburg. The histone IIIS used as kinase substrate was purchased from Sigma. CDK2/CycE (1.25 ng/μL) was incubated in the presence of various concentrations of test substances (0 μM, and within the range 0.01-100 μM) in 40 μL of assay buffer [50 mM Tris/HCl pH 8.0, 10 mM MgCl2, 0.1 mM Na ortho-vanadate, 1.0 mM dithiothreitol, 0.5 μM ATP, 0.2% PEG20000, 10 μM histone IIIS, 0.2 μCi/measurement point ^33P-gamma ATP, 0.05% NP40, 1.25% dimethyl sulphoxide] at 22° C. for 10 min. The reaction was stopped by adding EDTA solution (250 mM, pH 8.0, 15 μl/measurement point).
15 μl of each reaction mixture were loaded onto P30 filter strips (from Wallac), and non-incorporated ^33P-ATP was removed by washing the filter strips three times in 0.5% strength phosphoric acid for 10 min each time.
(§2) After the filter strips had been dried at 70° C. for 1 hour, the filter strips were covered with scintillator strips (MeltiLex™ A, from Wallac) and baked at 90° C. for 1 hour. The amount of incorporated ^33P (substrate phosphorylation) was determined by scintillation measurement in a gamma radiation counter (Wallac).
as §1

KDR (VEGFR2) = biological target: T4, KDR (VEGFR2) (Homo sapiens, UniProt P35968); assay: KDR kinase assay; conditions: 8 μM ATP
T4 construct: GST; purchased ProQinase GmbH, Freiburg; host or cells: baculovirus-infected insect cells (Sf9)
T4 sequence (P35968 807-1356 limits assumed): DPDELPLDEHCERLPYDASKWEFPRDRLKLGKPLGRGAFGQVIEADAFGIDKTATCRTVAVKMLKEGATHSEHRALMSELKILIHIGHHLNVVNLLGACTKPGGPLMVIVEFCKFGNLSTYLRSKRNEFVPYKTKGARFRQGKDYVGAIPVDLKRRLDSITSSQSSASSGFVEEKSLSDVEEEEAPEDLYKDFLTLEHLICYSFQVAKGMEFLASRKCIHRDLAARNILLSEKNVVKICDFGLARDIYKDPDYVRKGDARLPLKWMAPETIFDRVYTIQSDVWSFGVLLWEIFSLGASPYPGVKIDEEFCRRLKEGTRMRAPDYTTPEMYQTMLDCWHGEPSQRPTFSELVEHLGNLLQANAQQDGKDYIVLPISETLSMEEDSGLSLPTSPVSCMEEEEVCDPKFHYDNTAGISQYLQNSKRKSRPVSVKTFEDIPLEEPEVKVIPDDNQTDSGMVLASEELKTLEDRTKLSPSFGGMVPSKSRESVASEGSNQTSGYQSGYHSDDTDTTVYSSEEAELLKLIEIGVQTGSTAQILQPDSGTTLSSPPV
Protocol: Recombinant KDR kinase-GST fusion proteins purified from baculovirus-infected insect cells (Sf9), were purchased from ProQinase GmbH, Freiburg. Poly(Glu4Tyr)n, which was used as kinase substrate, was purchased from Sigma.
KDR kinase was incubated in the presence of various concentrations of test substances (0 μM, and within the range 0.01-100 μM) in 40 μL of assay buffer [40 mM Tris/HCl pH 7.5, 10 mM MgCl2, 1 mM MnCl2, 1.0 mM dithiothreitol, 8 μM ATP, 0.025% PEG20000, 24 ng/μL poly(Glu4Tyr)n, 0.2 μCi/measurement point ^33P-gamma ATP, 1.25% dimethyl sulphoxide] at 22° C. for 10 min. The reaction was stopped by adding EDTA solution (250 mM, pH 7.5, 15 μl/measurement point). 15 μl of each reaction mixture were loaded onto P30 filter strips (from Wallac), and non-incorporated ^33P-ATP was removed by washing the filter strips three times in 0.5% strength phosphoric acid for 10 min each time.
as §2, §1

[1] = test system: Aurora C, CDK1/CycB, CDK2/CycE, KDR (VEGFR2); assay: various kinase assays taken together (selectivity profile); conditions: comparison across the kinase assays, in words
Protocol: The compounds of Examples 1 to 22 were tested for their inhibitory effect in the various kinase assays and in a proliferation assay with MCF7 human breast tumour cells (Tab. 1). […] Exemplary compounds 1-8, 10-12, 15, 17-20 inhibit the proliferation of human MCF7 breast tumour cells with half-maximum concentrations in the submicromolar range.

IC50 (human Aurora-C): 20 µM | IC50 (CDK1/CycB): 180 nM | IC50 (CDK2/CycE): 43 nM | IC50 (KDR (VEGFR2)): > 1000 nM | selectivity profile [1]: CDK-selective
SMILES: Cc1c(NC(=O)N=S(C)(C)=O)cccc1Nc1ncc(Br)c(N[C@H](C)[C@@H](C)O)n1 [Example 9, N-({3-[(5-Bromo-4-{[(1R,2R)-2-hydroxy-1-methylpropyl]amino}pyrimidin-2-yl)amino]-2-methylphenyl)carbamoyl)-S,S-dimethylsulphoximide]
